#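 1) Cells in 96-well plates. 2) Compound, 48 h, 5 concentrations. 3) Linear interpolation between surrounding doses. 4) Unreached endpoint = highest concentration. GI50 marks 50% less growth. TGI: total growth inhibition.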
# Tests used:
# Experiment in all cases: NCI-60 cell line screen, 48 h
# 786-0 renal = system: 786-0 renal
# A498 renal = system: A498 renal
# A549 NSCLC = system: A549 NSCLC
# ACHN renal = system: ACHN renal
# BT-549 breast = system: BT-549 breast
# CAKI-1 renal = system: CAKI-1 renal
# CCRF-CEM leukemia = system: CCRF-CEM leukemia
# COLO 205 colon = system: COLO 205 colon
# DU-145 prostate = system: DU-145 prostate
# EKVX NSCLC = system: EKVX NSCLC
# HCC-2998 colon = system: HCC-2998 colon
# HCT-116 colon = system: HCT-116 colon
# HCT-15 colon = system: HCT-15 colon
# HL-60(TB) leukemia = system: HL-60(TB) leukemia
# HOP-62 NSCLC = system: HOP-62 NSCLC
# HOP-92 NSCLC = system: HOP-92 NSCLC
# HS 578T breast = system: HS 578T breast
# HT29 colon = system: HT29 colon
# IGROV1 ovarian = system: IGROV1 ovarian
# K-562 leukemia = system: K-562 leukemia
# KM12 colon = system: KM12 colon
# LOX IMVI melanoma = system: LOX IMVI melanoma
# M14 melanoma = system: M14 melanoma
# MALME-3M melanoma = system: MALME-3M melanoma
# MCF7 breast = system: MCF7 breast
# MDA-MB-231 breast = system: MDA-MB-231 breast
# MDA-MB-435 = system: MDA-MB-435
# MDA-MB-468 breast = system: MDA-MB-468 breast
# MOLT-4 leukemia = system: MOLT-4 leukemia
# NCI-H226 lung = system: NCI-H226 lung
compound,measurement,setting,value
Cc1ccc(-c2nc3ccc(C(=O)N=Nc4c(O)[nH]c5ccc(Cl)cc45)cc3[nH]2)cc1,GI50,786-0 renal,20.9 µM
same,TGI,786-0 renal,65.4 µM
same,GI50,A498 renal,> 100 µM
same,TGI,A498 renal,> 100 µM
same,GI50,A549 NSCLC,56.8 µM
same,TGI,A549 NSCLC,> 100 µM
same,GI50,ACHN renal,> 100 µM
same,TGI,ACHN renal,> 100 µM
same,GI50,BT-549 breast,96.3 µM
same,TGI,BT-549 breast,> 100 µM
same,GI50,CAKI-1 renal,> 100 µM
same,TGI,CAKI-1 renal,> 100 µM
same,GI50,CCRF-CEM leukemia,5.77 µM
same,TGI,CCRF-CEM leukemia,> 100 µM
same,GI50,COLO 205 colon,24.6 µM
same,TGI,COLO 205 colon,> 100 µM
same,GI50,DU-145 prostate,5.57 µM
same,TGI,DU-145 prostate,88.4 µM
same,GI50,EKVX NSCLC,> 100 µM
same,TGI,EKVX NSCLC,> 100 µM
same,GI50,HCC-2998 colon,18.7 µM
same,TGI,HCC-2998 colon,> 100 µM
same,GI50,HCT-116 colon,16 µM
same,TGI,HCT-116 colon,> 100 µM
same,GI50,HCT-15 colon,> 100 µM
same,TGI,HCT-15 colon,> 100 µM
same,GI50,HL-60(TB) leukemia,> 100 µM
same,TGI,HL-60(TB) leukemia,> 100 µM
same,GI50,HOP-62 NSCLC,78.4 µM
same,TGI,HOP-62 NSCLC,> 100 µM
same,GI50,HOP-92 NSCLC,72.6 µM
same,TGI,HOP-92 NSCLC,> 100 µM
same,GI50,HS 578T breast,31.2 µM
same,TGI,HS 578T breast,> 100 µM
same,GI50,HT29 colon,17.6 µM
same,TGI,HT29 colon,> 100 µM
same,GI50,IGROV1 ovarian,81.9 µM
same,TGI,IGROV1 ovarian,> 100 µM
same,GI50,K-562 leukemia,8.85 µM
same,TGI,K-562 leukemia,> 100 µM
same,GI50,KM12 colon,> 100 µM
same,TGI,KM12 colon,> 100 µM
same,GI50,LOX IMVI melanoma,4.81 µM
same,TGI,LOX IMVI melanoma,18.9 µM
same,GI50,M14 melanoma,57.8 µM
same,TGI,M14 melanoma,> 100 µM
same,GI50,MALME-3M melanoma,15.6 µM
same,TGI,MALME-3M melanoma,43.8 µM
same,GI50,MCF7 breast,5.03 µM
same,TGI,MCF7 breast,47.4 µM
same,GI50,MDA-MB-231 breast,10.7 µM
same,TGI,MDA-MB-231 breast,40.3 µM
same,GI50,MDA-MB-435,10.1 µM
same,TGI,MDA-MB-435,94.9 µM
same,GI50,MDA-MB-468 breast,5.28 µM
same,TGI,MDA-MB-468 breast,21.8 µM
same,GI50,MOLT-4 leukemia,4.12 µM
same,TGI,MOLT-4 leukemia,> 100 µM
same,GI50,NCI-H226 lung,> 100 µM

# From PubChem BioAssay (NCI)
